Measurements reported in patent publication US7378435B2, “Aryl-isoxazole-4-carbonyl-indole-carboxylic acid amide derivatives” (Hoffmann-La Roche Inc., priority 2005, dated 2008).
Read-outs that look alike come from different tables or passages of the source.

Target: T1, GABA A receptor α5β3γ2 (Homo sapiens, UniProt P18507+P31644)
T1 construct: expressed in transfected cells; host or cells: HEK293 (transiently transfected for the human receptors)
Test: [3H]flumazenil competition binding, human GABA A α5β3γ2 receptors expressed in HEK293 cells
Settings: mean of two determinations
Procedure: The affinity of compounds at GABA A receptor subtypes was measured by competition for [3H]flumazenil (85 Ci/mmol; Roche) binding to HEK293 cells expressing rat (stably transfected) or human (transiently transfected) receptors of composition α1β3γ2, α2β3γ2, α3β3γ2 and α5β3γ2.
Cell pellets were suspended in Krebs-tris buffer (4.8 mM KCl, 1.2 mM CaCl2, 1.2 mM MgCl2, 120 mM NaCl, 15 mM Tris; pH 7.5; binding assay buffer), homogenized by polytron for ca. 20 sec on ice and centrifuged for 60 min at 4° C. (50000 g; Sorvall, rotor: SM24=20000 rpm). The cell pellets were resuspended in Krebs-tris buffer and homogenized by polytron for ca. 15 sec on ice. Protein was measured (Bradford method, Bio-Rad) and aliquots of 1 mL were prepared and stored at −80° C.
Radioligand binding assays were carried out in a volume of […] (96-well plates) which contained […] of cell membranes, [3H]flumazenil at a concentration of 1 nM for α1, α2, α3 subunits and 0.5 nM for α5 subunits and the test compound in the range of […]. Nonspecific binding was defined by 10^−5 M diazepam and typically represented less than 5% of the total binding. Assays were incubated to equilibrium for 1 hour at 4° C. and harvested onto GF/C uni-filters (Packard) by filtration using a Packard harvester and washing with ice-cold wash buffer (50 mM Tris; pH 7.5). After drying, filter-retained radioactivity was detected by liquid scintillation counting. Ki values were calculated using Excel-Fit (Microsoft) and are the means of two determinations.

[1] = human α5β3γ2, 0.5 nM [3H]flumazenil, read-out: Ki[μM] hα5
[2] = Table 1, human α5, [3H]flumazenil, read-out: Ki h

Row | SMILES | Ki [1] | Ki [2]
1 | Cc1onc(-c2ccc(F)cc2)c1C(=O)c1c[nH]c2cc(C(=O)NCC3CC3)ccc12 [Example 1, 3-[3-(4-Fluoro-phenyl)-5-methyl-isoxazole-4-carbonyl]-1H-indole-6-carboxylic acid cyclopropylmethyl-amide] | 0.00645 µM | 
2 | Cc1onc(-c2ccccc2)c1C(=O)c1c[nH]c2cc(C(=O)NCC3CC3)ccc12 [Example 2, 3-(5-Methyl-3-phenyl-isoxazole-4-carbonyl)-1H-indole-6-carboxylicacidcyclopropylmethyl-amide] | 0.00545 µM | 0.00545 µM
3 | C#CCNC(=O)c1ccc2c(C(=O)c3c(-c4ccccc4)noc3C)c[nH]c2c1 [Example 3, 3-(5-Methyl-3-phenyl-isoxazole-4-carbonyl)-1H-indole-6-carboxylicacid prop-2-ynylamide] | 0.0029 µM | 0.0029 µM
4 | Cc1onc(-c2ccccc2)c1C(=O)c1c[nH]c2cc(C(=O)NCCc3cnc[nH]3)ccc12 [Example 4, 3-(5-Methyl-3-phenyl-isoxazole-4-carbonyl)-1H-indol-6-carboxylicacid [2-(1H-imidazol-4-yl)-ethyl]-amide] | 0.00265 µM | 0.00265 µM
5 | Cc1onc(-c2ccccc2)c1C(=O)c1c[nH]c2cc(C(=O)NCc3ccccn3)ccc12 [Example 5, 3-(5-Methyl-3-phenyl-isoxazole-4-carbonyl)-1H-indole-6-carboxylicacid (pyridin-2-ylmethyl)-amide] | 0.00395 µM | 0.00395 µM
6 | Cc1onc(-c2ccccc2)c1C(=O)c1c[nH]c2cc(C(=O)NCCN3CCOCC3)ccc12 [Example 6, 3-(5-Methyl-3-phenyl-isoxazole-4-carbonyl)-1H-indole-6-carboxylicacid (2-morpholin-4-yl-ethyl)-amide] | 0.0033 µM | 0.0033 µM
7 | Cc1onc(-c2ccccc2)c1C(=O)c1c[nH]c2cc(C(=O)NCc3ccco3)ccc12 [Example 7, 3-(5-Methyl-3-phenyl-isoxazole-4-carbonyl)-1H-indole-6-carboxylicacid (furan-2-ylmethyl)-amide] | 0.0053 µM | 0.0053 µM
8 | Cc1onc(-c2ccccc2)c1C(=O)c1c[nH]c2cc(C(=O)NC3CC3)ccc12 [Example 8, 3-(5-Methyl-3-phenyl-isoxazole-4-carbonyl)-1H-indole-6-carboxylicacidcyclopropylamide] | 0.003 µM | 0.003 µM
9 | Cc1onc(-c2ccccc2)c1C(=O)c1c[nH]c2cc(C(=O)NC3CCC3)ccc12 [Example 9, 3-(5-Methyl-3-phenyl-isoxazole-4-carbonyl)-1H-indole-6-carboxylicacidcyclobutylamide] | 0.00435 µM | 0.00435 µM
10 | Cc1onc(-c2ccccc2)c1C(=O)c1c[nH]c2cc(C(=O)NC3CCCC3)ccc12 [Example 10, 3-(5-Methyl-3-phenyl-isoxazole-4-carbonyl)-1H-indole-6-carboxylicacidcyclopentylamide] |  | 0.0137 µM
11 | Cc1onc(-c2ccccc2)c1C(=O)c1c[nH]c2cc(C(=O)NC3CCOCC3)ccc12 [Example 11, 3-(5-Methyl-3-phenyl-isoxazole-4-carbonyl)-1H-indole-6-carboxylicacid (tetrahydro-pyran-4-yl)-amide] | 0.00545 µM | 0.00545 µM
12 | Cc1onc(-c2ccc(F)cc2)c1C(=O)c1c[nH]c2cc(C(=O)NCCc3cnc[nH]3)ccc12 [Example 12, 3-[3-(4-Fluoro-phenyl)-5-methyl-isoxazole-4-carbonyl]-1H-indole-6-carboxylicacid [2-(1H-imidazol-4-yl)-ethyl]-amide] | 0.0026 µM | 0.0026 µM
13 | Cc1onc(-c2ccc(F)cc2)c1C(=O)c1c[nH]c2cc(C(=O)NCc3ccccn3)ccc12 [Example 13, 3-[3-(4-Fluoro-phenyl)-5-methyl-isoxazole-4-carbonyl]-1H-indole-6-carboxylicacid (pyridin-2-ylmethyl)-amide] | 0.00565 µM | 0.00565 µM
14 | Cc1onc(-c2ccc(F)cc2)c1C(=O)c1c[nH]c2cc(C(=O)NCCN3CCOCC3)ccc12 [Example 14, 3-[3-(4-Fluoro-phenyl)-5-methyl-isoxazole-4-carbonyl]-1H-indole-6-carboxylicacid (2-morpholin-4-yl-ethyl)-amide] | 0.00455 µM | 0.00455 µM
15 | Cc1onc(-c2ccc(F)cc2)c1C(=O)c1c[nH]c2cc(C(=O)NCc3ccco3)ccc12 [Example 15, 3-[3-(4-Fluoro-phenyl)-5-methyl-isoxazole-4-carbonyl]-1H-indole-6-carboxylicacid (furan-2-ylmethyl)-amide] | 0.00484 µM | 0.00485 µM
16 | Cc1onc(-c2ccc(F)cc2)c1C(=O)c1c[nH]c2cc(C(=O)NCc3ccncc3)ccc12 [Example 16, 3-[3-(4-Fluoro-phenyl)-5-methyl-isoxazole-4-carbonyl]-1H-indole-6-carboxylicacid (pyridin-4-ylmethyl)-amide] | 0.00365 µM | 0.00365 µM
17 | Cc1onc(-c2ccc(F)cc2)c1C(=O)c1c[nH]c2cc(C(=O)NCCCN3CCOCC3)ccc12 [Example 17, 3-[3-(4-Fluoro-phenyl)-5-methyl-isoxazole-4-carbonyl]-1H-indole-6-carboxylicacid (3-morpholin-4-yl-propyl)-amide] | 0.0043 µM | 0.0043 µM
18 | Cc1onc(-c2ccc(F)cc2)c1C(=O)c1c[nH]c2cc(C(=O)NCCO)ccc12 [Example 18, 3-[3-(4-Fluoro-phenyl)-5-methyl-isoxazole-4-carbonyl]-1H-indole-6-carboxylicacid (2-hydroxy-ethyl)-amide] | 0.00185 µM | 0.00185 µM
19 | C#CCN(C)C(=O)c1ccc2c(C(=O)c3c(-c4ccc(F)cc4)noc3C)c[nH]c2c1 [Example 19, 3-[3-(4-Fluoro-phenyl)-5-methyl-isoxazole-4-carbonyl]-1H-indole-6-carboxylicacid methyl-prop-2-ynyl-amide] |  | 0.0606 µM
20 | C#CCNC(=O)c1ccc2c(C(=O)c3c(-c4ccc(F)cc4)noc3C)c[nH]c2c1 [Example 20, 3-[3-(4-Fluoro-phenyl)-5-methyl-isoxazole-4-carbonyl]-1H-indole-6-carboxylicacid prop-2-ynylamide] | 0.00325 µM | 0.00325 µM
21 | Cc1onc(-c2ccc(F)cc2)c1C(=O)c1c[nH]c2cc(C(=O)NC3CCOCC3)ccc12 [Example 21, 3-[3-(4-Fluoro-phenyl)-5-methyl-isoxazole-4-carbonyl]-1H-indole-6-carboxylicacid (tetrahydro-pyran-4-yl)-amide] | 0.005 µM | 0.005 µM
22 | Cc1onc(-c2ccc(F)cc2)c1C(=O)c1c[nH]c2cc(C(=O)NC3CCCC3)ccc12 [Example 22, 3-[3-(4-Fluoro-phenyl)-5-methyl-isoxazole-4-carbonyl]-1H-indole-6-carboxylicacidcyclopentylamide] | 0.00975 µM | 0.00975 µM
23 | Cc1onc(-c2ccc(F)cc2)c1C(=O)c1c[nH]c2cc(C(=O)NC3CC3)ccc12 [Example 23, 3-[3-(4-Fluoro-phenyl)-5-methyl-isoxazole-4-carbonyl]-1H-indole-6-carboxylicacidcyclopropylamide] | 0.00305 µM | 0.00305 µM
24 | Cc1onc(-c2ccc(F)cc2)c1C(=O)c1c[nH]c2cc(C(=O)NCc3cccnc3)ccc12 [Example 24, 3-[3-(4-Fluoro-phenyl)-5-methyl-isoxazole-4-carbonyl]-1H-indole-6-carboxylicacid (pyridin-3-ylmethyl)-amide] | 0.00225 µM | 0.00225 µM
25 | Cc1onc(-c2ccc(F)cc2)c1C(=O)c1c[nH]c2cc(C(=O)NC3CCC3)ccc12 [Example 25, 3-[3-(4-Fluoro-phenyl)-5-methyl-isoxazole-4-carbonyl]-1H-indole-6-carboxylicacidcyclobutylamide] | 0.00675 µM | 0.00675 µM
26 | Cc1onc(-c2cccc(F)c2)c1C(=O)c1c[nH]c2cc(C(=O)NCCc3cnc[nH]3)ccc12 [Example 26, 3-[3-(3-Fluoro-phenyl)-5-methyl-isoxazole-4-carbonyl]-1H-indole-6-carboxylicacid [2-(1H-imidazol-4-yl)-ethyl]-amide] |  | 0.0235 µM
27 | Cc1onc(-c2cccc(F)c2)c1C(=O)c1c[nH]c2cc(C(=O)NCc3ccccn3)ccc12 [Example 27, 3-[3-(3-Fluoro-phenyl)-5-methyl-isoxazole-4-carbonyl]-1H-indole-6-carboxylicacid (pyridin-2-ylmethyl)-amide] |  | 0.0394 µM
28 | Cc1onc(-c2cccc(F)c2)c1C(=O)c1c[nH]c2cc(C(=O)NCCN3CCOCC3)ccc12 [Example 28, 3-[3-(3-Fluoro-phenyl)-5-methyl-isoxazole-4-carbonyl]-1H-indole-6-carboxylicacid (2-morpholin-4-yl-ethyl)-amide] |  | 0.0227 µM
29 | Cc1onc(-c2cccc(F)c2)c1C(=O)c1c[nH]c2cc(C(=O)NCc3ccco3)ccc12 [Example 29, 3-[3-(3-Fluoro-phenyl)-5-methyl-isoxazole-4-carbonyl]-1H-indole-6-carboxylicacid (furan-2-ylmethyl)-amide] |  | 0.0621 µM
